According to patent US20110300197A1, “FOOD PRODUCT” (Mars, Incorporation, priority 2008, published 2011):

Key:
Format in all cases: cell-based, dog
[1] = system: biofilms representative of canine dental plaque; assay: Canine plate biofilm assay (PBA): biomass quantification (crystal violet assay); conditions: 48 hours, extracts at 500 μg/ml unless otherwise stated, OD595 vs no active control
Protocol: (§1) The assay requires fresh supragingival canine dental plaque and saliva for inoculation. The inoculum consists of pooled dental plaque and unfiltered saliva sampled from a group of 14 dogs, varying in age, breed and oral health status.
(§2) The plaque and saliva were resuspended in artificial saliva to form the inoculum of approximately 15% plaque and 30% saliva.
(§3) The plate biofilm assay (PBA) utilises a 24 well plate format in which biofilms, representative of canine dental plaque, are grown on hydroxyapatite (HA) discs. Prior to being introduced to the 24 well assay plate, each HA disc is preconditioned for 2 hours in a solution of 50% filter sterilised canine saliva in artificial canine saliva. The preconditioning step stimulates the formation of a salivary pellicle on the HA disc surface. […] Each HA disc, with the exception of those being used for biomass quantification, is placed into 500 μl PBS and vortex mixed for 30 seconds to remove biofilm growth from the disc into solution. […] Biofilm-covered HA discs that are being used for biomass quantification are removed from the 24 well assay plate and used directly in the crystal violet assay.
The total amount of biofilm grown on the HA discs was quantified using the crystal violet staining method. Biomass was represented as being directly proportional to the OD reading at 595 nm (0D595) of the samples compared to controls. […]

[2] = system: trypsin-like protease activity; assay: Canine plate biofilm assay (PBA): trypsin-like protease activity (liquid BAPNA assay); conditions: 48 hours, extracts at 500 μg/ml unless otherwise stated, vs no active control
Protocol: as §1, §2, §3
Trypsin-like protease activity was measured using the liquid BAPNA assay, a colourimetric assay in which the amount of trypsin present in a sample is directly proportional to the intensity of the colour developed. […]

Aerobes = assay: Canine plate biofilm assay (PBA): bacterial viable counts, aerobes; conditions: 48 hours, extracts at 500 μg/ml unless otherwise stated, vs no active control
Protocol: as §1, §2
as §3, with “saliva.” for “saliva. The preconditioning step stimulates the formation of a salivary pellicle on the HA disc surface.”
(§4) Viable numbers of bacteria were quantified using Columbia blood agar plates supplemented with haemin and menadione. Aerobes were counted after incubation for 2 days and anaerobes, including black pigmenting colonies (BPC), were counted after incubation at appropriate conditions for 9 days. […]

anaerobes = assay: Canine plate biofilm assay (PBA): bacterial viable counts, anaerobes; conditions: 48 hours, extracts at 500 μg/ml unless otherwise stated, vs no active control
Protocol: as §1, §2
as §3, with “saliva.” for “saliva. The preconditioning step stimulates the formation of a salivary pellicle on the HA disc surface.”
as §4

[3] = system: black pigmenting colonies (BPC); assay: Canine plate biofilm assay (PBA): bacterial viable counts, black pigmenting colonies; conditions: 48 hours, extracts at 500 μg/ml unless otherwise stated, vs no active control
Protocol: as §1, §2
as §3, with “saliva.” for “saliva. The preconditioning step stimulates the formation of a salivary pellicle on the HA disc surface.”
as §4

## [H]/N=C(\N/C(=N/[H])NCCCCCCNC(=N)NC(=N)Nc1ccc(Cl)cc1)Nc1ccc(Cl)cc1 [Chlorhexidine, chlorhexidine]
[1]
  Biomass (% reduction): 94.40%
[2]
  Protease (% reduction): 95.76%
Aerobes
  Aerobe (Log 10 reduction): 2.87 Log 10
anaerobes
  Anaerobe (Log 10 reduction): 2.48 Log 10
[3]
  BPC (Log 10 reduction): 2.74 Log 10
